In brackets after ≈: the same amount, converted by molar mass.
Columns and labels:
E. coli ATCC 25922 [1] = assay: reference broth microdilution (rBMD); format: cell-based; details: Escherichia coli, ATCC25922, read-out: MIC rBMD, E. coli ATCC 25922, isolates from urine cultures; geometric mean, n = 3
S. aureus ATCC 29213 = details: CLSI M100-Ed35; cited from earlier work
E. coli ATCC 25922 [2] = details: CLSI M100-Ed35; cited from earlier work

Row | Structure (SMILES) | MIC (E. coli ATCC 25922 [1]) [µg/mL] | MIC CLSI QC Range (S. aureus ATCC 29213) [µg/mL] | MIC CLSI QC Range (E. coli ATCC 25922 [2]) [µg/mL]
1 | Cc1nnc(SCC2=C(C(=O)O)N3C(=O)[C@@H](NC(=O)Cn4cnnn4)[C@H]3SC2)s1 [Cefazolin] | 2 (≈ 4.4 µM) | – | –
2 | CO[C@@]1(NC(=O)Cc2cccs2)C(=O)N2C(C(=O)O)=C(COC(N)=O)CS[C@@H]21 [Cefoxitin] | – | 1.0 to 4.0 | –
3 | CO/N=C(\C(=O)N[C@@H]1C(=O)N2C(C(=O)O)=C(CSc3nc(=O)c(=O)[nH]n3C)CS[C@H]12)c1csc(N)n1 [Ceftriaxone] | – | 1.0 to 8.0 | 0.03 to 0.12
4 | CO/N=C(\C(=O)N[C@@H]1C(=O)N2C(C(=O)O)=C(COC(N)=O)CS[C@H]12)c1ccco1 [Cefuroxime] | – | – | 2.0 to 8.0
5 | C[C@@H](O)[C@H]1C(=O)N2C(C(=O)O)=C(S[C@@H]3CN[C@H](C(=O)N(C)C)C3)[C@H](C)[C@H]12 [Meropenem] | – | 0.03 to 0.12 | 0.008 to 0.06

Source: US20260201438A1 (priority 2022, published 2026)
